Source: patent publication US8846908B2, “Tricyclic carbamate JAK inhibitors” (Rigel Pharmaceuticals, Inc., priority 2008, dated 2014)

Molecular target: BaF3 V617F cells (Homo sapiens, UniProt O60674, V617F, cells depend on it)
Assay: Proliferation assay, BaF3 V617F cells (Cell Titer-Glo)
Type: cell-based, mouse
Conditions: proliferation for 72 hours at 37° C., stated to show ability to inhibit JAK2 activity, read-out: IC50 (the source's name)
Procedure: BaF3 V617F cells are maintained and plated in RPMI with 10% FBS. Plating density for these cells is 1×10^5 cells/mL.
The cells were resuspended in a corresponding medium at a required cell density (see above). 100μ of cell suspension was added to each well of a flat bottom 96 well white plate. The compound was serially diluted in DMSO from 5 mM in 3-fold dilutions, and then diluted 1:250 in the RPMI 1640 medium containing 5% FBS and pen/strep. 100 μL of resulting 2× compound solution was added per well in duplicate and the cells were allowed to proliferate for 72 hours at 37° C.
Proliferation was measured using Cell Titer-Glo. The substrate was thawed and allowed to come to room temperature. After removal of top 100 μL of medium from each well, 100 μL of the premixed Cell Titer-Glo reagent was added to each well. The plates were mixed on an orbital shaker for three minutes to induce lysis and incubated at ambient temperature for an additional five minutes to allow the signal to equilibrate. The Luminescence was read on the Wallac Plate Reader.
The results of the ability of the compounds of the invention to inhibit JAK2 activity, when tested in the above assay, are shown in the following Table 2 wherein the level of activity (i.e., the IC50) for each compound is indicated in Table 2. The compound numbers in Table 2 refers to the compounds disclosed herein as being prepared by the methods disclosed herein.

Sequence of BaF3 V617F cells (O60674 whole entry V617F): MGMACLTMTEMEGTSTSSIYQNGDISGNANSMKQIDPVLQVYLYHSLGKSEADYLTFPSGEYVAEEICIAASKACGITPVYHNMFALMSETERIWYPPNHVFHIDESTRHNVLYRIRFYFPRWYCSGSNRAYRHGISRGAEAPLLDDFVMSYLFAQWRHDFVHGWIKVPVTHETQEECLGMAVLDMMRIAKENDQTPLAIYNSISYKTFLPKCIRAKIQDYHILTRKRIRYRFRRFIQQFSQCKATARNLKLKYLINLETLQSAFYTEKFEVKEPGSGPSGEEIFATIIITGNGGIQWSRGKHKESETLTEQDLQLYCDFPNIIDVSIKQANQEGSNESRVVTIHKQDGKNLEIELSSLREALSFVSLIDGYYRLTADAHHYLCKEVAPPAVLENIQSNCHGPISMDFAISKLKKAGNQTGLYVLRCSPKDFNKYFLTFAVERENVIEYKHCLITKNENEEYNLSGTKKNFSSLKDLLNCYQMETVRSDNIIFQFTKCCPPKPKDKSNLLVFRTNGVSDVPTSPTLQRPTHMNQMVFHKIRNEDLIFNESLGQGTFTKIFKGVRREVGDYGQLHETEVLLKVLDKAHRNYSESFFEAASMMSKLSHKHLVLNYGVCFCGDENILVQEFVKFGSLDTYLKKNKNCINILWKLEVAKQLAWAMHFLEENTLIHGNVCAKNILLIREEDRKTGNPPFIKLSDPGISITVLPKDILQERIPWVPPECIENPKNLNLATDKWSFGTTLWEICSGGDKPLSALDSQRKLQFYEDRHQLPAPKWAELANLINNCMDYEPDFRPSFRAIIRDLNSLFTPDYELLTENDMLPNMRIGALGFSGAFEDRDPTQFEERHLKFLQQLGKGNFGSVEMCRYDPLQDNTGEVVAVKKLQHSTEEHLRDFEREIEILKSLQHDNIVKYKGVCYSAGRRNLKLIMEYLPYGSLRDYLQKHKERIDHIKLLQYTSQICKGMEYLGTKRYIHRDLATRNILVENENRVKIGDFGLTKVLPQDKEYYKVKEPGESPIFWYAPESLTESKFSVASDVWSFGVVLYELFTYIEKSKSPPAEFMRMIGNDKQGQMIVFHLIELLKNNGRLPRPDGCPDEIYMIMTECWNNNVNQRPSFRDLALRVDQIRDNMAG

Row | Structure (SMILES) | GI50 [nM]
1 | Cc1cnc(Nc2ccc3c(c2)[C@@H]2NC(=O)O[C@@H]2C3)nc1Nc1ccc(OCc2ccccn2)cc1 [Compound 28, 5-Methyl-N2-[(3aS,8aR)-2-oxo-3,3a,8,8a-tetrahydro-2H-indeno[1,2-d]oxazol-5-yl]-N4-[4-(pyridin-2-ylmethoxy)phenyl]-2,4-pyrimidinediamine] | 250 to 500
2 | O=C1N[C@@H]2c3cc(Nc4ncc(F)c(Nc5ccc(CCc6ccncc6)cc5)n4)ccc3C[C@@H]2O1 [Compound 29, 5-Fluoro-N2-[(3aR,8aS)-2-oxo-3,3a,8,8a-tetrahydro-2H-indeno[1,2-d]oxazol-5-yl]-N4-[4-[2-(pyridin-4-yl)ethyl]phenyl]-2,4-pyrimidinediamine] | 250 to 500
3 | Cc1cnc(Nc2ccc3c(c2)[C@H]2NC(=O)O[C@H]2C3)nc1Nc1ccc(OCc2cccnc2)cc1 [Compound 31, 5-Methyl-N2-[(3aR,8aS)-2-oxo-3,3a,8,8a-tetrahydro-2H-indeno[1,2-d]oxazol-5-yl]-N4-[4-(pyridin-3-ylmethoxy)phenyl]-2,4-pyrimidinediamine] | 250 to 500
4 | Cc1cnc(Nc2ccc3c(c2)[C@@H]2NC(=O)O[C@@H]2C3)nc1Nc1ccc(OCc2cccnc2)cc1 [Compound 32, 5-Methyl-N2-[(3aS,8aR)-2-oxo-3,3a,8,8a-tetrahydro-2H-indeno[1,2-d]oxazol-5-yl]-N4-[4-(pyridin-3-ylmethoxy)phenyl]-2,4-pyrimidinediamine] | 250 to 500
5 | Cc1cnc(Nc2ccc3c(c2)[C@H]2NC(=O)O[C@H]2C3)nc1Nc1cccc2c1CCC2 [Compound 35, N4-(Indan-4-yl]-5-methyl-N2-[(3aR,8aS)-2-oxo-3,3a,8,8a-tetrahydro-2H-indeno[1,2-d]oxazol-5-yl]-2,4-pyrimidinediamine] | < 250
6 | O=C1N[C@@H]2c3cc(Nc4ncc(Cl)c(Nc5cccc6c5CCCC6)n4)ccc3C[C@@H]2O1 [Compound 36, 5-Chloro-N2-[(3aR,8aS)-2-oxo-3,3a,8,8a-tetrahydro-2H-indeno[1,2-d]oxazol-5-yl]-N4-(5,6,7,8-tetrahydronaphthalen-1-yl)2,4-pyrimidinediamine] | 250 to 500
7 | Cc1cnc(Nc2ccc3c(c2)[C@H]2NC(=O)O[C@H]2C3)nc1Nc1cccc2c1CCCC2 [Compound 37, 5-Methyl-N2-[(3aR,8aS)-2-oxo-3,3a,8,8a-tetrahydro-2H-indeno[1,2-d]oxazol-5-yl]-N4-(5,6,7,8-tetrahydronaphthalen-1-yl)-2,4-pyrimidinediamine] | < 250
8 | Cc1cnc(Nc2ccc3c(c2)[C@H]2NC(=O)CO[C@H]2C3)nc1Nc1ccc2c(c1)N(C)C(=O)C(C)(C)O2 [Compound 38, 5-Methyl-N2-[(4aR,9aS)-3-oxo-2,3,4,4a,9a-hexahydroindeno[2,1-b][1,4]oxazin-6-yl]-N4-(2,2,4-trimethyl-3-oxo-benz[1,4]oxazin-6-yl)-2,4-pyrimidinediamine] | 250 to 500
9 | O=C1CO[C@H]2Cc3ccc(Nc4ncc(Cl)c(Nc5ccc(CNS(=O)(=O)C6CC6)cc5)n4)cc3[C@H]2N1 [Compound 40, 5-Chloro-N4-[4-[[N-(cyclopropylsulfonyl)amino]methyl]phenyl]-N2-[(4aR,9aS)-3-oxo-2,3,4,4a,9a-hexahydroindeno[2,1-b][1,4]oxazin-6-yl]-2,4-pyrimidinediamine] | < 250

Second part, the compound after the results:

Row | GI50 [nM] | Structure (SMILES)
10 | 1000 to 5000 | O=C1N[C@H]2c3cc(Nc4ncc(F)c(Nc5ccc(OCc6ccccn6)cc5)n4)ccc3C[C@H]2O1 [Compound 30, 5-Fluoro-N2-[(3aS,8aR)-2-oxo-3,3a,8,8a-tetrahydro-2H-indeno[1,2-d]oxazol-5-yl]-N4-[4-(pyridin-2-ylmethoxy)phenyl]-2,4-pyrimidinediamine]
11 | 250 to 500 | O=C1N[C@H]2c3cc(Nc4ncc(F)c(Nc5ccc(CCc6ccncc6)cc5)n4)ccc3C[C@H]2O1 [Compound 33, 5-Fluoro-N2-[(3aS,8aR)-2-oxo-3,3a,8,8a-tetrahydro-2H-indeno[1,2-d]oxazol-5-yl]-N4-[4-[2-(pyridin-4-yl)ethyl]phenyl]-2,4-pyrimidinediamine]
12 | ≥ 5000 | O=C1N[C@@H]2c3cc(Nc4ncc(Cl)c(Nc5cccc6c5CCC6)n4)ccc3CC2O1 (stereo partly drawn) [Compound 34, 5-Chloro-N4-(indan-4-yl]-5-methyl-N2-[(3aR,8aS)-2-oxo-3,3a,8,8a-tetrahydro-2H-indeno[1,2-d]oxazol-5-yl]-2,4-pyrimidinediamine]
13 | 250 to 500 | Cc1cnc(Nc2ccc3c(c2)[C@H]2NC(=O)CO[C@H]2C3)nc1Nc1ccc(CNS(=O)(=O)C2CC2)cc1 [Compound 39, N4-[4-[[N-(Cyclopropylsulfonyl)amino]methyl]phenyl]-5-methyl-N2-[(4aR,9aS)-3-oxo-2,3,4,4a,9a-hexahydroindeno[2,1-b][1,4]oxazin-6-yl]-2,4-pyrimidinediamine]
